# How the values were obtained:
# [1] = Determination of the protein affinity in the lysine model (HPTLC); settings: 10 mg in 5 ml THF made up to 10 ml with lysine solution (200 mg/l water), 35° C., HPTLC detection at 254 nm and 366 nm; for reaction with lysine in a Maillard reaction / detectability of starting substance after 1 h: sample after 1 h
# Procedure: In each case, 10 mg of the substances according to Example 1 and Example 2 are weighed out into a 10 ml volumetric flask and dissolved in 5 ml of tetrahydrofuran (THF). The volumetric flask is then made up to the mark with a lysine solution in distilled water. The concentration of the lysine solution is 200 mg/I of water. The solution is stirred in the volumetric flask at 35° C. for 24 h. Samples are taken after 1 h and after 24 h. 5 μl of each of these samples are pipetted onto the start zone of an HPTLC silica gel 60 […] plate (Merck Art. 1.05628) using a micropipette. For development of the HPTLC plate, the eluent consisting of THF/heptane in the ratio 75/25 containing 0.1 vol % of formic acid is used. After development, detection is carried out at 254 nm and 366 nm in a CAMAG ATS4, and the Rf values are determined.
# [2] = Investigation in the Liquidskin model (L*-a*-b* values, UV/VIS spectrometer); settings: RT, 3 hrs
# Procedure: 1 mmol of the substance according to Example 1 (2-methyl-4-oxo-4H-pyran-3-yl 2-(4-dibutylamino-2-hydroxybenzoyl)benzoate) is dissolved in 94 ml of ethylene glycol and 6 ml of water (potassium hydrogenphthalate-buffered, pH=4) with 1 mmol of DL-lysine and stirred at RT for 3 hrs. (=Liquidskin model). The L*-a*-b* values of this solution are subsequently measured using a UV/VIS spectrometer (Varian Cary-100) and compared with the starting values.
# [3] = 1 mmol substance + 1 mmol DL-lysine in 94 ml ethylene glycol and 6 ml water (pH=4), compared with starting values
SMILES,reaction with lysine in a Maillard reaction / detectability of starting substance after 1 h [1],"delta L* [2, 3]","delta a* [2, 3]","delta b* [2, 3]",colour change of lysine ([2]; Liquidskin model),reaction with lysine in a Maillard reaction / detectability of starting substance after 24 h ([1]; sample after 24 h)
"CCCCN(CCCC)c1ccc(C(=O)c2ccccc2C(=O)Oc2c(C)occc2=O)c(O)c1 [Example 1, 2-methyl-4-oxo-4H-pyran-3-yl 2-(4-dibutylamino-2-hydroxybenzoyl)benzoate]",completely reacted with lysine,−4.07,−2.75,+7.83,exhibits a colour change of lysine,
"COc1ccc(/C=C/C(=O)Oc2c(C)occc2=O)cc1 [Example 2, 2-methyl-4-oxo-4H-pyran-3-yl 2-(E)-3-(4-methoxyphenyl)acrylate]",can still be detected,,,,,reaction is complete

# Reference: patent publication US20150306002A1, “3-HYDROXY-4-OXO-4H-PYRAN- OR 3-HYDROXY-4-OXO-1,4-DIHYDROPYRIDINE DERIVATIVES AS PROTEIN-ADHESIVE ACTIVE SUBSTANCES” (MERCK PATENT GMBH, priority 2012, published 2015)
